# Data from US20170232083A1, “METHODS OF DIAGNOSIS AND TREATMENT OF CELIAC DISEASE IN CHILDREN” (priority 2014, published 2017).
# Tested on: PBMC (polyclonal gluten-specific T cells) of paediatric and adult CD patients
# Assay: IFN-γ ELISpot of PBMC after 3 day oral wheat challenge (SFU, % of maximal peptide response, dominance scores, EC50; Examples 5-6)
# Assay type: cell-based, human
# Conditions: for IFN-γ ELISpot response: after oral wheat challenge; for Cross-reactive T cell response: following wheat challenge
# [1] = subject I (3-5yrs/6-10yrs part)
# [2] = subject J (3-5yrs/6-10yrs part)
# [3] = subject K (3-5yrs/6-10yrs part)
# [4] = subject V (3-5yrs/6-10yrs part)
# [5] = subject W (3-5yrs/6-10yrs part)
# [6] = subject Y (3-5yrs/6-10yrs part)
# [7] = subject five (3-5yrs/6-10yrs part)
# [8] = subject seven (3-5yrs/6-10yrs part)
# [9] = subject six (3-5yrs/6-10yrs part)
# [10] = subject ten (3-5yrs/6-10yrs part)
# [11] = subject two (3-5yrs/6-10yrs part)
sequence,measurement,setting,value
PEQTFPEQPQLPF,IFN-γ ELISpot response,"patient A, 11-17 yrs, cut-off 10 SFU",3 SFU
same,IFN-γ ELISpot response,"patient E, H, 11-17 yrs, cut-off 10 SFU",19 SFU
same,Significant response as percentage of maximal peptide SFU,"patient E, max peptide 224 SFU",(6-10% = ^)
same,IFN-γ ELISpot response,"patient F, 11-17 yrs, cut-off 10 SFU",1 SFU
same,IFN-γ ELISpot response,"patient G, 11-17 yrs, cut-off 10 SFU",15 SFU
same,Significant response as percentage of maximal peptide SFU,"patient G, max peptide 15 SFU",+ (>70% = +)
same,IFN-γ ELISpot response,"patient H (HLA-DQ2.5 homozygote), 3-5yrs, cut-off 10 SFU",2 SFU
same,IFN-γ ELISpot response,"patient H, 11-17 yrs, cut-off 10 SFU",9 SFU
same,IFN-γ ELISpot response,"patient ID not given, 11-17 yrs, cut-off 10 SFU",0 SFU
same,Significant response as percentage of maximal peptide SFU,"patient J, max peptide 196 SFU",+ (>70% = +)
same,Significant response as percentage of maximal peptide SFU,"patient K, max peptide 53 SFU",′′′ (41-70% = ′′′)
same,IFN-γ ELISpot response,"patient N, 3-5yrs, cut-off 10 SFU",1 SFU
same,IFN-γ ELISpot response,"patient P, 11-17 yrs, cut-off 21.6 SFU",4 SFU
same,IFN-γ ELISpot response,"patient Q, 11-17 yrs, cut-off 10 SFU",2 SFU
same,IFN-γ ELISpot response,"patient U, H, 11-17 yrs, cut-off 10 SFU",1 SFU
same,IFN-γ ELISpot response,"patient V, 6-10 yrs, cut-off 10 SFU",4 SFU
same,IFN-γ ELISpot response,"patient Y, 6-10 yrs, cut-off 10 SFU",1 SFU
same,IFN-γ ELISpot response,"patient eleven, 6-10 yrs, cut-off 10 SFU",0 SFU
same,IFN-γ ELISpot response,"patient four, 3-5yrs, cut-off 10 SFU",0 SFU
same,IFN-γ ELISpot response,"patient seven, 6-10 yrs, cut-off 10.5 SFU",4 SFU
same,IFN-γ ELISpot response,"patient ten, 3-5yrs, cut-off 10 SFU",4 SFU
same,IFN-γ ELISpot response,"patient three, 6-10 yrs, cut-off 10.5 SFU",179 SFU
same,IFN-γ ELISpot response,"patient twelve, 11-17 yrs, cut-off 10 SFU",0 SFU
same,IFN-γ ELISpot response,"patient two, 3-5yrs, cut-off 10 SFU",1 SFU
QLFPLPEQPFPQP,Cross-reactive T cell response,"subject A, 11-17yrs",2 SFU
same,Cross-reactive T cell response,"subject D, 11-17yrs",2 SFU
same,Cross-reactive T cell response,"subject E, 11-17yrs",2 SFU
same,Cross-reactive T cell response,"subject F, 11-17yrs",2 SFU
same,Cross-reactive T cell response,"subject G, 11-17yrs",0 SFU
same,Cross-reactive T cell response,subject H,0 SFU
same,Cross-reactive T cell response,[1],1 SFU
same,Significant response as a percentage of maximal peptide SFU,subject J,′ (11-20% = ′)
same,Cross-reactive T cell response,[2],26 SFU
same,Cross-reactive T cell response,[3],5 SFU
same,Cross-reactive T cell response,"subject P, 11-17yrs",11 SFU
same,Significant response as a percentage of maximal peptide SFU,"subject Q, 11-17yrs",′ (11-20% = ′)
same,Cross-reactive T cell response,"subject Q, 11-17yrs",13 SFU
same,Significant response as a percentage of maximal peptide SFU,"subject T, 11-17yrs",′ (11-20% = ′)
same,Cross-reactive T cell response,"subject T, 11-17yrs",13 SFU
same,Cross-reactive T cell response,"subject U, 11-17yrs",9 SFU
same,Cross-reactive T cell response,[4],4 SFU
same,Cross-reactive T cell response,[5],4 SFU
same,Cross-reactive T cell response,[6],2 SFU
same,Cross-reactive T cell response,[7],7 SFU
same,Cross-reactive T cell response,"subject nine, 11-17yrs",1 SFU
same,Cross-reactive T cell response,[8],1 SFU
same,Cross-reactive T cell response,[9],0 SFU
same,Significant response as a percentage of maximal peptide SFU,subject ten,+ (>70% = +)
same,Cross-reactive T cell response,[10],14 SFU
same,Cross-reactive T cell response,[11],3 SFU
PEQPFQPEQPFPQQ,Cross-reactive T cell response,"subject A, 11-17yrs",2 SFU
same,Cross-reactive T cell response,"subject D, 11-17yrs",1 SFU
same,Significant response as a percentage of maximal peptide SFU,"subject E, 11-17yrs",(6-10% - ^)
same,Cross-reactive T cell response,"subject E, 11-17yrs",12 SFU
same,Cross-reactive T cell response,"subject F, 11-17yrs",6 SFU
same,Cross-reactive T cell response,"subject G, 11-17yrs",5 SFU
same,Cross-reactive T cell response,subject H,3 SFU
same,Cross-reactive T cell response,[1],1 SFU
same,Significant response as a percentage of maximal peptide SFU,subject J,′ (11-20% = ′)
same,Cross-reactive T cell response,[2],31 SFU
same,Cross-reactive T cell response,[3],8 SFU
same,Cross-reactive T cell response,"subject P, 11-17yrs",9 SFU
same,Cross-reactive T cell response,"subject Q, 11-17yrs",7 SFU
same,Significant response as a percentage of maximal peptide SFU,"subject T, 11-17yrs",′ (11-20% = ′)
same,Cross-reactive T cell response,"subject T, 11-17yrs",11 SFU
same,Cross-reactive T cell response,"subject U, 11-17yrs",6 SFU
same,Cross-reactive T cell response,[4],7 SFU
same,Cross-reactive T cell response,[5],3 SFU
same,Cross-reactive T cell response,[6],1 SFU
same,Cross-reactive T cell response,[7],3 SFU
same,Cross-reactive T cell response,"subject nine, 11-17yrs",0 SFU
same,Cross-reactive T cell response,[8],7 SFU
same,Cross-reactive T cell response,[9],2 SFU
same,Significant response as a percentage of maximal peptide SFU,subject ten,+ (>70% = +)
same,Cross-reactive T cell response,[10],12 SFU
same,Cross-reactive T cell response,[11],6 SFU
